Here are results for 13 compounds from patent publication US10781183B2, “Small molecule inducers of reactive oxygen species and inhibitors of mitochondrial activity” (The Regents of the University of Michigan, priority 2016, dated 2020).

Like-named read-outs stand apart in the source and are kept apart here.

In series [1] the test system is MiaPaCa-2 cells. Put plainly: ROS detection assay (H2DCFDA probe). It counts as cell-based. The following applies: for ROS induction compared with lead compound QD232: MiaPaCa-2, 24 h treatment, 10 μM (FIG. 1C). As for the experimental part:
To quantify ROS induction by redox modulators, a high throughput ROS assay in 384-well plates using H2DCFDA as the ROS detection probe was developed (FIG. 1A).
Cells were detached by 0.05% trypsin-EDTA, neutralized, centrifuged (1200 rpm, 5 min) and resuspended in cell culture media. Suspension were then treated with 20 μM cell permeable H2DCFDA for 30 min at 37° C. Cells were then centrifuged (1200 rpm, 5 min) and washed with cell culture media to remove excess probe. After washing, cells were placed in black-wall 384-well plate at 20,000 cells/well, incubated for 30 min and treated by compounds at designated conditions. Fluorescent signal were then read at 493 nm/523 nm on BioTek H1 plate reader for ROS detection.

Series [2] has as its system BxPC-3 cells. Kind of series: MTT cytotoxicity assay, BxPC-3. It counts as cell-based. To be noted: Homo sapiens, three independent experiments. Here is the method: (§1) MiaPaCa-2, Panc-1 and BxPC-3 pancreatic cancer cell lines were obtained from the ATCC. Normal pancreatic cells HPDE and HPNE were kindly provided (Translational Oncology Program, University of […], Ann Arbor, Mich.). Gemcitabine resistant cell line MiaPaCa-2-GR (gemcitabine resistant) was kindly provided (Department of Pathology, Wayne State University, Detroit, Mich.). All cell lines were cultured as monolayer and maintained in RPMI1640 supplemented with 10% fetal bovine serum (FBS) in a humidified atmosphere with 5% CO2 at 37° C. MiaPaCa-2-GR culture was supplemented with 200 nM gemcitabine.
(§2) Cytotoxicity of compounds was evaluated with 3-(4,5-dimethylthiazol-2-yl)-2,5-diphenyltetrazolium bromide (MTT) assay. Cells were placed in 96-well plate at 3000-8000 cells/well. After overnight attachment, compounds were added to the wells at sequential dilutions (30 nM-10 μM for most cell lines). After 72 h treatment, MTT was added into the media to a final concentration of 300 μg/mL. Cells were incubated for 3 h at 37° C., and the insoluble formazan converted by viable cells were dissolved in 150 μL of DMSO. Absorbance at 570 nm was read by microplate reader (Molecular devices, Sunnyvale, Calif.), and inhibition of cell proliferation was calculated using the following formula: Inhibition of cell proliferation (%)=(1−ODtreatment/ODcontrol)×100%

Series [3] relates to Panc-1 cells. Put plainly: MTT cytotoxicity assay, Panc-1. Type of series: cell-based. To be noted: Homo sapiens, three independent experiments. As for the experimental part:
as §1, §2

The subject of series [4] is MiaPaCa-2 cells. Kind of series: MTT cytotoxicity assay, MiaPaCa-2. The following applies: MTT assay; for IC50: Homo sapiens, Mean ± SD, three independent experiments. Type of series: cell-based. As for the experimental part:
as §1, §2

Series [5] concerns MiaPaCa-2 cells. Put plainly: Bru-seq analysis for nascent RNA synthesis. To be noted: Bru-seq. Type of series: cell-based. From the text:
A bromouridine labeled RNA sequencing (Bru-seq) technique was used to better characterize molecular mechanisms of these novel agents. Bru-seq is able to capture real-time synthesis of the nascent RNA, so as to provide information on global gene transcription without interference by RNA stability or biased gene selection (Paulsen et al., 2014, Paulsen et al., 2013). […] Profiling of all genes with >1.5-fold change in expression upon treatment of QD232 or QD325 identified NRF2-mediated oxidative stress response and unfolded protein response (UPR) as key pathways implicated in drug action (FIG. 8A).
Bru-seq analysis was performed as previously reported (Paulsen et al., 2014). Briefly, 4×10^6 MiaPaCa-2 cells were placed in 10 cm dishes on Day 1. On Day 2, cells were treated with DMSO, QD232 or QD325 for 4 h. Bromouridine was added into the media to label newly synthesized nascent RNA in the last 30 min of treatment to a final concentration of 2 mM. Cells were then collected in TRIZOL and total RNA was isolated. Bromouridine containing RNA population was further isolated and sent for sequencing. Sequencing reads were mapped to the HG19 reference genome. Pre-ranked gene lists were generated for each treatment through ranking genes by fold changes in gene synthesis levels compared with control, and analyzed with GSEA (Broad Institute, MA) (Subramanian et al., 2005, Mootha et al., 2003)

In series [6] the test system is pancreatic cancer. To be noted: metastatic pancreatic cancer; gemcitabine group vs FOLFIRINOX group (Conroy et al., 2011); cited from earlier work.
Where [7] appears, read: BXPC-3, 72 h, Table 1, 72 h, Mean ± SD.
[8] abbreviates: BXPC-3, Table 2, Mean ± SD, read-out: IC 50 BxPC-3.
Where [9] appears, read: PANC-1, 72 h, Table 1, 72 h, Mean ± SD.
Where [10] appears, read: PANC-1, Table 2, Mean ± SD, read-out: IC 50 Panc-1.
Where [11] appears, read: MIA PaCa-2, 72 h, Table 1, 72 h.
Setting [12] is: MIA PaCa-2, Table 2, read-out: IC 50 MiaPaCa-2.

`COc1cc(NC2=CC(=O)c3ncncc3C2=O)cc(OC)c1OC` [QD326, 6-((3,4,5-trimethoxyphenyl)amino)quinazoline-5,8-dione] came in with a melting point of 161 to 162 °C. For the same compound, the “ROS induction compared with lead compound QD232” value in series [1] was “significantly higher ROS induction than the lead compound QD232”. Moreover, the “accumulation of ROS” value in series [1] (MiaPaCa-2, 10, 3.3 or 1.1 μM (FIG. 3A)) was “time- and dose-dependent accumulation of ROS”. Also, the “ROS accumulation at 10 and 3.3 μM” value in series [1] (MiaPaCa-2, 10 and 3.3 μM) is “rapid and high ROS accumulation”. Also, in series [1] (MiaPaCa-2, NAC 5 mM for 30 min pretreatment (FIG. 3B)), the “ROS induction after NAC pretreatment” value is recorded as “inhibited”. Besides, the IC50 in series [2] (setting [7]) was determined as 1.6 ± 0.3 µM. Moreover, in series [2] (setting [8]), the IC50 came out at 1.6 ± 0.3 µM. Besides, the IC50 in series [3] (setting [9]) stood at 0.8 ± 0.1 µM. Besides, the IC50 in series [3] (setting [10]) worked out at 0.8 ± 0.1 µM. This compound also had an IC50 in series [4] (setting [11]) of 1.5 ± 0.1 µM. Further, in series [4] (setting [12]), the IC50 was 1.5 ± 0.1 µM. Besides, the “cytotoxicity in presence of NAC” value in series [4] (72 h, NAC 5 mM (FIG. 3C)) is recorded as “decreased cytotoxicity”.
Compound `O=C1C(Nc2ccc(-c3ccc(F)cc3)cc2)=CC(=O)c2ncncc21` [QD334, 6-((4′-fluoro-[1,1′-biphenyl]-4-yl)amino)quinazoline-5,8-dione] returned a melting point of 285 to 289 °C. The IC50 in series [2] (setting [7]) stood at 4.4 ± 0.9 µM. Further, in series [2] (setting [8]), the IC50 stood at 4.4 ± 0.9 µM. Besides, the IC50 in series [3] (setting [9]) stood at 3.2 ± 0.8 µM. Further, in series [3] (setting [10]), the IC50 was 3.2 ± 0.8 µM. The IC50 in series [4] (setting [11]) was determined as 3.5 ± 1 µM. Further, in series [4] (setting [12]), the IC50 is 3.5 ± 1 µM.
For `CCc1ccc(-c2ccc(NC3=CC(=O)c4ncncc4C3=O)cc2)cc1` [QD335, 6-((4′-ethyl-[1,1′-biphenyl]-4-yl)amino)quinazoline-5,8-dione], the melting point amounted to 232 °C. Besides, the “ROS induction compared with lead compound QD232” value in series [1] is listed as “significantly higher ROS induction than the lead compound QD232”. Also, in series [2] (setting [7]), the IC50 is 3.1 ± 0.7 µM. In addition, the IC50 in series [2] (setting [8]) was found to be 3.1 ± 0.7 µM. Moreover, the IC50 in series [3] (setting [9]) was 1.2 ± 0.1 µM. Moreover, the IC50 in series [3] (setting [10]) came out at 1.2 ± 0.1 µM. Besides, in series [4] (setting [11]), the IC50 was 2 ± 0.1 µM. Also, in series [4] (setting [12]), the IC50 came to 2 ± 0.1 µM.
With `COc1ccc(-c2ccc(NC3=CC(=O)c4ncncc4C3=O)cc2)cc1` [QD336, 6-((4′-methoxy[1,1′-biphenyl]-4-yl)amino)quinazoline-5,8-dione], the melting point fell in the range of 270 to 272 °C. Moreover, in series [2] (setting [7]), the IC50 was 3.5 ± 0.5 µM. Further, the IC50 in series [2] (setting [8]) amounted to 3.5 ± 0.5 µM. The same compound returned an IC50 in series [3] (setting [9]) of 2.3 ± 0.3 µM. The IC50 in series [3] (setting [10]) came out at 2.3 ± 0.3 µM. Besides, the IC50 in series [4] (setting [11]) stood at 2.1 ± 0.5 µM. For the same compound, in series [4] (setting [12]), the IC50 was 2.1 ± 0.5 µM.
As to `Nc1ccc(-c2ccc(NC3=CC(=O)c4ncncc4C3=O)cc2)cc1` [QD337, 6-((4′-amino-[1,1′-biphenyl]-4-yl)amino)quinazoline-5,8-dione], the melting point is greater than 320 °C. In series [2] (setting [7]), the IC50 was 3.5 ± 0.6 µM. Further, in series [2] (setting [8]), the IC50 amounted to 3.5 ± 0.6 µM. The same compound gave an IC50 in series [3] (setting [9]) of 3.7 ± 0.1 µM. For the same compound, in series [3] (setting [10]), the IC50 was determined as 3.7 ± 0.1 µM. Also, the IC50 in series [4] (setting [11]) was determined as 2.5 ± 0.2 µM. The IC50 in series [4] (setting [12]) worked out at 2.5 ± 0.2 µM.
For the compound `Cc1ccc(-c2ccc(NC3=CC(=O)c4ncncc4C3=O)cc2F)cc1` [QD338, 6-((2-fluoro-4′-methyl-[1,1′-biphenyl]-4-yl)amino)quinazoline-5,8-dione], the melting point was 282 to 283 °C. This compound yielded an IC50 in series [2] (setting [7]) of 5 ± 0.7 µM. For the same compound, in series [2] (setting [8]), the IC50 is 5 ± 0.7 µM. The IC50 in series [3] (setting [9]) stood at 4.8 ± 0.1 µM. Further, in series [3] (setting [10]), the IC50 turned out to be 4.8 ± 0.1 µM. For the same compound, in series [4] (setting [11]), the IC50 came to 4.6 ± 1.1 µM. Moreover, the IC50 in series [4] (setting [12]) amounted to 4.6 ± 1.1 µM.
Turning to `Nc1ccc(C(=O)NCCC[P+](c2ccccc2)(c2ccccc2)c2ccccc2)cc1.[Br-]` [QD339, (3-(4-aminobenzamido)propyl) triphenylphosphonium bromide], the melting point lay in the range of 203 to 205 °C. For the same compound, the IC50 in series [2] (setting [8]) was greater than 30 µM. This compound came in with an IC50 in series [3] (setting [9]) greater than 30 µM. In series [3] (setting [10]), the IC50 is greater than 30 µM. Moreover, the IC50 in series [4] (setting [12]) was greater than 30 µM.
In turn, `COc1cccc(NC2=CC(=O)c3ncncc3C2=O)c1` [QD353, 6-((3-methoxyphenyl)amino)quinazoline-5,8-dione] yielded a melting point of 142 °C. The compound further returned an IC50 in series [2] (setting [7]) of 1.8 ± 0.1 µM. The IC50 in series [2] (setting [8]) came to 1.8 ± 0.1 µM. Also, the IC50 in series [3] (setting [9]) amounted to 0.6 ± 0.1 µM. Also, the IC50 in series [3] (setting [10]) was found to be 0.6 ± 0.1 µM. For the same compound, the IC50 in series [4] (setting [11]) was 1.8 ± 0.3 µM. Besides, in series [4] (setting [12]), the IC50 was 1.8 ± 0.3 µM.
Take `COc1ccc(NC2=CC(=O)c3ncncc3C2=O)cc1` [QD354, 6-((4-methoxyphenyl)amino)quinazoline-5,8-dione]: the melting point turned out to be 238 °C. Further, in series [2] (setting [7]), the IC50 was found to be 1.7 ± 0.2 µM. Besides, the IC50 in series [2] (setting [8]) worked out at 1.7 ± 0.2 µM. The IC50 in series [3] (setting [9]) worked out at 0.8 ± 0.2 µM. Also, in series [3] (setting [10]), the IC50 worked out at 0.8 ± 0.2 µM. This compound also gave an IC50 in series [4] (setting [11]) of 1.9 ± 0.2 µM. The IC50 in series [4] (setting [12]) is 1.9 ± 0.2 µM.
With `O=C1C(NCc2ccc(F)cc2)=CC(=O)c2ncncc21` [QD356, 6-((4-fluorobenzyl)amino)quinazoline-5,8-dione], the melting point is 203 °C. In series [2] (setting [7]), this compound returned an IC50 of 1.4 ± 0.2 µM. The IC50 in series [2] (setting [8]) was determined as 1.4 ± 0.2 µM. Also, the IC50 in series [3] (setting [9]) came out at 1 ± 0.1 µM. Further, in series [3] (setting [10]), the IC50 is 1 ± 0.1 µM. In addition, the IC50 in series [4] (setting [11]) was 1.7 ± 0.2 µM. Moreover, the IC50 in series [4] (setting [12]) was found to be 1.7 ± 0.2 µM.
`Nc1cccc(C(=O)NCCC[P+](c2ccccc2)(c2ccccc2)c2ccccc2)c1.[Br-]` [QD358, (3-(3-aminobenzamido)propyl)triphenylphosphonium bromide] yielded a melting point of 223 °C. For the same compound, the IC50 in series [2] (setting [8]) was greater than 30 µM. For the same compound, in series [3] (setting [9]), the IC50 was greater than 30 µM. Also, in series [3] (setting [10]), the IC50 was greater than 30 µM. The IC50 in series [4] (setting [12]) is greater than 30 µM.
`CC[C@@]1(O)C(=O)OCc2c1cc1n(c2=O)Cc2cc3ccccc3nc2-1` [camptothecin, reference compound]: the “transcription of mtDNA from mitochondrial promoters HSP2 and LSP on D-loop” value in series [5] is “no such effect was observed”.
On to FOLFIRINOX, for which the median overall survival in series [6] was 11.1 months.
